# Laboratory results from patent publication US20120020946A1, “Methods for Inactivating Viruses” (priority 2009, published 2012).
# Tests used:
# [1] = system: Poliovirus Sabin (Type 2H.010704); assay type: cell-based
# [2] = system: RD cell line (human rhabdomyosarcoma)
compound,measurement,setting,value
"OCl [Hypochlorite, Sodium hypochlorite]","infectivity score, virus added",[1],N
same,"cytotoxicity score, no virus added",[2],N
